Molecules are shown by their SMILES.

The experiment deals with T1, hNPRA (Homo sapiens, UniProt P16066).
T1 construct: expressed in transfected cells
T1 sequence (P16066 33-1061): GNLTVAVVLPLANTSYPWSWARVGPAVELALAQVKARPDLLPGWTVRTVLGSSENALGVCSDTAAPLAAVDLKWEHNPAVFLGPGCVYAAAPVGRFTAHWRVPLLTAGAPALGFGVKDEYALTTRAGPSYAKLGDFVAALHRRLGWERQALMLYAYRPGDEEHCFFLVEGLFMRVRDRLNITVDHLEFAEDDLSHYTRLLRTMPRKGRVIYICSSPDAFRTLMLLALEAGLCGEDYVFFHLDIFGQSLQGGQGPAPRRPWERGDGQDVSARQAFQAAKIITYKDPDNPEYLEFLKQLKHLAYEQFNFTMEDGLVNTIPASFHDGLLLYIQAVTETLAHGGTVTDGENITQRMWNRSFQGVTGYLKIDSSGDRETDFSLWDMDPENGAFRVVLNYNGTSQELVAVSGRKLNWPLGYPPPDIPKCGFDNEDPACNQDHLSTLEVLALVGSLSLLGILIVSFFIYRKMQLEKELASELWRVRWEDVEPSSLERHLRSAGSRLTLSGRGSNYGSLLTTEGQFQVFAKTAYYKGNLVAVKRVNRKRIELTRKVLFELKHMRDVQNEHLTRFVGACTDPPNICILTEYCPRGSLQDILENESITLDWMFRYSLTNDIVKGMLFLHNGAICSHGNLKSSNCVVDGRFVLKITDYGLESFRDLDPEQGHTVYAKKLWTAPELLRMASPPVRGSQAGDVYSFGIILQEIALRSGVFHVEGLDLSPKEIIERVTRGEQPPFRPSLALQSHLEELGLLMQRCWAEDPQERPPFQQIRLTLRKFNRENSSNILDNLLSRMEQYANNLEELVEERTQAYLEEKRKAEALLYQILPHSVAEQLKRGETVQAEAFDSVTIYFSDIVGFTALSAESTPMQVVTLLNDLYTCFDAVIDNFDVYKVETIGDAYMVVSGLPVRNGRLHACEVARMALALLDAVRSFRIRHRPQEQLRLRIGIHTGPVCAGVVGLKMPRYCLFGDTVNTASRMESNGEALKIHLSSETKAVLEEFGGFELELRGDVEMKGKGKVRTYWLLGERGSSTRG
The experiment is described as follows: NPRA Functional Cell Assay (cGMP HTRF, NPRA HEK JumpIn stable cells). The settings on record: cGMP production, 1 hour at 37° C., 10-point dose response. It is filed as cell-based. A digest of the protocol: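 cGMP HTRF read-out after 1 hour compound treatment at 37° C. of human NPRA-expressing HEK JumpIn cells, 1500 cells/well, in buffer with phosphodiesterase inhibitors IBMX and RO20 (100 uM each). Signal converted to [cGMP] by calibration curve; EC50s fitted by 4-parameter logistic; 50 nM h-ANP as positive response.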
For orientation: Time-resolved FRET reads energy transfer from a long-lived donor to a nearby acceptor.
One may read the EC50 as the concentration that produces a half-maximal response. Read a high EC50 as lower potency in that assay. Compound `CC(C)(C)[C@H]1CCc2nc3sc(C(=O)N[C@H](CCN4CCC(O)CC4)c4cccc(C(=O)N5CCO[C@H]6CNC[C@H]65)c4)nc3cc2C1` (racemic) [Example 161, rac-(7S)-7-tert-butyl-N-[rac-(1R)-3-(4-hydroxy-1-piperidyl)-1-[3-[rac-(4aR,7aS)-3,4a,5,6,7,7a-hexahydro-2H-pyrrolo[3,4-b][1,4]oxazine-4-carbonyl]phenyl]propyl]-5,6,7,8-tetrahydrothiazolo[5,4-b]quinoline-2-carboxamide] showed a concentration giving a half-maximal response (EC50) of 1950 nM.

`CC(C)(C)[C@H]1CCc2nc3sc(C(=O)N[C@H](CCNC4CCOCC4)c4ccc(-c5ccc(=O)[nH]c5)cc4)cc3cc2C1` (racemic) [Example 36, [rac-(3R)-3-[4-(6-oxo-1H-pyridin-3-yl)phenyl]-3-[rac-(6S)-6-tert-butyl-5,6,7,8-tetrahydrothieno[2,3-b]quinoline-2-carbonyl]amino]propyl]-tetrahydropyran-4-yl-ammonium;formate] displayed a half-maximal effective concentration (EC50) of 557 nM.

In the case of `CN(C)S(=O)(=O)Nc1ccc([C@@H](CCN2CCCOCC2)NC(=O)c2nc3cc4c(nc3s2)CC[C@H](C(C)(C)C)C4)cn1` (racemic) [Example 205, rac-(7S)-7-tert-butyl-N-[rac-(1R)-1-[6-(dimethylsulfamoylamino)-3-pyridyl]-3-(1,4-oxazepan-4-ium-4-yl)propyl]-5,6,7,8-tetrahydrothiazolo[5,4-b]quinoline-2-carboxamide; 2,2,2-trifluoroacetate], the EC50 was found to be 563 nM.

`CC(C)(C)[C@H]1CCc2nc3sc(C(=O)N[C@H](CCNC4COC4)c4cccc(NS(C)(=O)=O)c4)cc3cc2C1` (racemic) [Example 21, ammonium; methylsulfonyl-[3-[rac-(1R)-3-(oxetan-3-ylamino)-1-[[rac-(6S)-6-tert-butyl-5,6,7,8-tetrahydrothieno[2,3-b]quinoline-2-carbonyl]amino]propyl]phenyl]azanide]: it took 1770 nM to reach a half-maximal effect (EC50).

`CC(C)(C)[C@H]1CCc2nc3sc(C(=O)N[C@H](CCN4CCC(O)CC4)c4cccc(C(=O)NCC5CCNC5)c4)nc3cc2C1` (mixture of isomers) [Example 152, rac-(7S)-7-tert-butyl-N-[rac-(1R)-3-(4-hydroxy-1-piperidyl)-1-[3-(pyrrolidin-3-ylmethylcarbamoyl)phenyl]propyl]-5,6,7,8-tetrahydrothiazolo[5,4-b]quinoline-2-carboxamide] came in with an EC50 of 686 nM.

Compound `CN(C)CC[C@@H](NC(=O)c1nc2cc3c(nc2s1)CC[C@H](C(C)(C)C)C3)c1cccc(C(=O)NCCN)c1` (racemic) [Example 92, rac-(7S)-7-tert-butyl-N-[rac-(1R)-1-[3-(2-aminoethylcarbamoyl)phenyl]-3-(dimethyl-amino)propyl]-5,6,7,8-tetrahydrothiazolo[5,4-b] quinoline-2-carboxamide] gave a concentration for a half-maximal effect (EC50) of 348 nM.

The compound `CN1CCC(CNC(=O)c2cccc([C@@H](CCN3CCC(O)CC3)NC(=O)c3nc4cc5c(nc4s3)CC[C@H](C(C)(C)C)C5)c2)C1` (mixture of isomers) [Example 142, rac-(7S)-7-tert-butyl-N-[rac-(1R)-3-(4-hydroxy-1-piperidyl)-1-[3-[(1-methylpyrrolidin-3-yl)methylcarbamoyl]phenyl]propyl]-5,6,7,8-tetrahydrothiazolo[5,4-b]quinoline-2-carboxamide] returned an EC50 of 258 nM.

For `CC(C)(C)[C@H]1CCc2nc3sc(C(=O)N[C@H](CCN4CCC(O)CC4)c4ccc(Oc5ccc(O)cc5)nc4)nc3cc2C1` (racemic) [Example 194, ammonium; 4-[[5-[rac-(1R)-3-(4-hydroxy-1-piperidyl)-1-[[rac-(7S)-7-tert-butyl-5,6,7,8-tetrahydrothiazolo[5,4-b]quinoline-2-carbonyl]amino]propyl]-2-pyridyl]oxy]phenolate], a half-maximal effect (EC50) was put at 1500 nM.

These data come from patent publication US12440496B2, “Natriuretic peptide receptor a agonists useful for the treatment of cardiometabolic diseases, kidney disease and diabetes” (Merck Sharp & Dohme LLC, priority 2019, dated 2025).
